{"source": "patent US6548448B2", "about": "“Delivery systems for cyclopropenes” (Rohm and Haas Company, priority 2001, dated 2003)", "assay_type_in_all_cases": "physicochemical", "key": {"[1]": {"assay": "1-MCP release from wax paper exposed to 1-MCP gas, sealed jar", "conditions": "for Concentration of 1-MCP: wax paper exposed to 2206 ppm 1-MCP for 5 hours, sealed quart jar", "method": "(§1) Wax paper measuring 4.5×2.75 inches was exposed to 2206 ppm 1-MCP (vol/vol) in the atmosphere of a sealed quart jar for 5 hours. The film was removed, allowed to stand in air for 5 minutes and then sealed in a fresh quart jar equipped with a sampling septum. The 1-MCP release characteristics of the film versus time were determined by periodically analyzing the atmosphere in the jar for 1-MCP. The analysis method was gas chromatography using a flame ionization detector."}, "[2]": {"assay": "1-MCP release from waxy, cast (Parafilm M) film containing 1-MCP/α-cyclodextrin complex in humid chamber", "conditions": "for Concentration of 1-MCP: waxy cast Parafilm M film with 0.5 g complex, 36 liter high humidity chamber", "method": "Parafilm® “M” film (2.0 grams, American National Can Corp.) was dissolved/dispersed in 12 grams of hexane. 1-MCP/α-cyclodextrin complex powder (0.5 grams) was mixed into this suspension and then the whole mixture was poured into a 3.5 inch diameter glass crystallizing dish to dry. The dish was placed in a 50° C. oven for 5 hrs. to dry and the resulting cast film was removed from the dish. This film was placed into a 36 liter volume high humidity chamber being careful not to allow the film to contact any water directly. The 1-MCP release characteristics of the film versus time were determined by periodically analyzing the atmosphere in the chamber for 1-MCP. The analysis method was gas chromatography using a flame ionization detector."}, "[3]": {"assay": "1-MCP release from polyvinyl alcohol (PVA) film containing 1-MCP/α-cyclodextrin complex in humid chamber", "conditions": "for Concentration of 1-MCP: PVA film with 0.05 g complex, 36 liter high humidity chamber", "method": "(§2) 1-MCP/α-cyclodextrin complex powder (0.05 grams) was heat sealed into a 2×3.5 inch piece of 1.5 mil thick M 7061 polyvinyl alcohol (PVA) film (Chris Craft Corp.) using a Sealmaster 420 (Audion Elektro) heat sealer. This film was placed into a 36 liter volume high humidity chamber. […] The 1-MCP release characteristics of the film versus time were determined by periodically analyzing the atmosphere in the chamber for 1-MCP. The analysis method was gas chromatography using a flame ionization detector."}, "[4]": {"assay": "1-MCP release from low density polyethylene (LDPE) film containing 1-MCP/α-cyclodextrin complex in humid chamber", "conditions": "for Concentration of 1-MCP: LDPE film with 0.05 g complex, 36 liter high humidity chamber", "method": "as §2, with “1-MCP/α-CD” for “1-MCP/α-cyclodextrin”, “5.5×12” for “2×3.5”, “2.0” for “1.5”, “low density polyethylene (LDPE) film.” for “M 7061 polyvinyl alcohol (PVA) film (Chris Craft Corp.) using a Sealmaster 420 (Audion Elektro) heat sealer.”"}, "[5]": {"assay": "1-MCP release from high density polyethylene (HDPE) film exposed to 1-MCP gas, sealed jar", "conditions": "for Concentration of 1-MCP: HDPE film exposed to 2206 ppm 1-MCP for 2 hours, sealed quart jar", "method": "as §1, with “High density polyethylene (HDPE) film of 2 mil thickness measuring 4.5×2.75” for “Wax paper measuring 4.5×2.75”, “jar for 2 hours. The” for “jar for 5 hours. The”"}}}
{"smiles": "CC1=CC1", "note": "[Compound 1-MCP, 1-methylcyclopropene]", "values": [{"measurement": "Concentration of 1-MCP", "setting": "[1]; 0 min.", "result": 0.0, "unit": "ppm"}, {"measurement": "Concentration of 1-MCP", "setting": "[1]; 0.5 min.", "result": 0.3, "unit": "ppm"}, {"measurement": "Concentration of 1-MCP", "setting": "[1]; 5 min.", "result": 0.9, "unit": "ppm"}, {"measurement": "Concentration of 1-MCP", "setting": "[1]; 15 min.", "result": 0.9, "unit": "ppm"}, {"measurement": "Concentration of 1-MCP", "setting": "[1]; 60 min.", "result": 0.9, "unit": "ppm"}, {"measurement": "1-MCP release from the film (in words)", "setting": "[1]; wax paper, sealed jar", "result": "less release than Example 4, but still a significant amount"}, {"measurement": "Concentration of 1-MCP", "setting": "[2]; 0 min.", "result": 0.0, "unit": "ppm"}, {"measurement": "Concentration of 1-MCP", "setting": "[2]; 5 min.", "result": 0.02, "unit": "ppm"}, {"measurement": "Concentration of 1-MCP", "setting": "[2]; 20 min.", "result": 0.1, "unit": "ppm"}, {"measurement": "Concentration of 1-MCP", "setting": "[2]; 35 min.", "result": 0.3, "unit": "ppm"}, {"measurement": "Concentration of 1-MCP", "setting": "[2]; 60 min.", "result": 0.8, "unit": "ppm"}, {"measurement": "Concentration of 1-MCP", "setting": "[2]; 90 min.", "result": 1.4, "unit": "ppm"}, {"measurement": "1-MCP release from the film (in words)", "setting": "[2]; waxy cast film, high humidity chamber, no direct water contact", "result": "released from the LDPE film just by the water provided by humidity"}, {"measurement": "Concentration of 1-MCP", "setting": "[3]; 0 min.", "result": 0.0, "unit": "ppm"}, {"measurement": "Concentration of 1-MCP", "setting": "[3]; 5 min.", "result": 0.9, "unit": "ppm"}, {"measurement": "Concentration of 1-MCP", "setting": "[3]; 25 min.", "result": 2.2, "unit": "ppm"}, {"measurement": "Concentration of 1-MCP", "setting": "[3]; 45 min.", "result": 3.2, "unit": "ppm"}, {"measurement": "Concentration of 1-MCP", "setting": "[3]; 90 min.", "result": 6.0, "unit": "ppm"}, {"measurement": "Concentration of 1-MCP", "setting": "[3]; 20 hr.", "result": 17.0, "unit": "ppm"}, {"measurement": "1-MCP release from the film (in words)", "setting": "[3]; PVA film, high humidity chamber, no direct water contact", "result": "released from the PVA film just by the water provided by humidity"}, {"measurement": "Concentration of 1-MCP", "setting": "[4]; 0 min.", "result": 0.0, "unit": "ppm"}, {"measurement": "Concentration of 1-MCP", "setting": "[4]; 5 min.", "result": 2.0, "unit": "ppm"}, {"measurement": "Concentration of 1-MCP", "setting": "[4]; 20 min.", "result": 7.7, "unit": "ppm"}, {"measurement": "Concentration of 1-MCP", "setting": "[4]; 40 min.", "result": 14.5, "unit": "ppm"}, {"measurement": "Concentration of 1-MCP", "setting": "[4]; 60 min.", "result": 19.0, "unit": "ppm"}, {"measurement": "1-MCP release from the film (in words)", "setting": "[4]; LDPE film, high humidity chamber, no direct water contact", "result": "released from the LDPE film just by the water provided by humidity"}, {"measurement": "Concentration of 1-MCP", "setting": "[5]; 0 sec.", "result": 0.0, "unit": "ppm"}, {"measurement": "Concentration of 1-MCP", "setting": "[5]; 0.5 min.", "result": 3.0, "unit": "ppm"}, {"measurement": "Concentration of 1-MCP", "setting": "[5]; 5 min.", "result": 8.0, "unit": "ppm"}, {"measurement": "Concentration of 1-MCP", "setting": "[5]; 15 min.", "result": 9.6, "unit": "ppm"}, {"measurement": "Concentration of 1-MCP", "setting": "[5]; 60 min.", "result": 11.0, "unit": "ppm"}, {"measurement": "1-MCP release from the film (in words)", "setting": "[5]; HDPE film, sealed jar", "result": "significant release"}]}
